Key:
carboxypeptidase A [1] = biological target: T1, carboxypeptidase A (Bos taurus, UniProt P00730); assay: competitive enzyme inhibition assay with AAFP substrate, absorbance; Ki from IC50 by Cheng-Prusoff; type: biochemical
T1 construct: gene CPA1
T1 sequence (P00730 111-419): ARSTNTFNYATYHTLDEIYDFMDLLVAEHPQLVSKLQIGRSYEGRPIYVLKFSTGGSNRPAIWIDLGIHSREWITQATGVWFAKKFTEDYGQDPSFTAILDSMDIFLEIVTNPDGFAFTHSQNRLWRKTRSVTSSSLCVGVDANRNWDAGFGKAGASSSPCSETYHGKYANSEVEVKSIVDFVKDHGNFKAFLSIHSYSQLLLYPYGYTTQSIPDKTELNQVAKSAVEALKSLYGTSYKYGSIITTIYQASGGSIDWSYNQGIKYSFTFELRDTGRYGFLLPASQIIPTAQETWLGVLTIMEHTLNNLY

carboxypeptidase A [2] = biological target: T1, carboxypeptidase A; assay: X-ray crystal structure at […] Å; Ki from competitive inhibition assay with AAFP substrate; type: biochemical

SMILES	Ki (carboxypeptidase A [1])	Ki (carboxypeptidase A [2])
O=C(O)C[C@@H](Cc1ccccc1)C(=O)O [BzlSA, benzylsuccinic acid]	0.00052 mM	–
O=C(O)CC(O)(CC(=O)O)C(=O)O [citrate]	–	5 mM
